Source: PMC3254824 (Biochemistry, 2011)

How the values were obtained:
[1] = target: T1, yThg1 (yeast Thg1, tRNA^His guanylyltransferase) (Saccharomyces cerevisiae, UniProt P53215); assay: single-turnover nucleotidyl transfer kinetics, gamma-32P ppp-tRNA; format: biochemical; settings: read-out: KDapp,NTP, nucleotidyl transfer step, 15 μM enzyme, 10 mM MgCl2, pH 7.5, room temperature
T1 sequence (P53215 1-237): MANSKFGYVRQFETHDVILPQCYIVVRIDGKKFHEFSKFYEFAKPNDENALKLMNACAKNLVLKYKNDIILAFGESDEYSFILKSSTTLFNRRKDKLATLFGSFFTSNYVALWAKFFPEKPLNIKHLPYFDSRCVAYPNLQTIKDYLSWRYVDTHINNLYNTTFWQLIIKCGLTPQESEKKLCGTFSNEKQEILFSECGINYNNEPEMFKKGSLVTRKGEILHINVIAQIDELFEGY

[2] = target: T1, yThg1 (yeast Thg1, tRNA^His guanylyltransferase); assay: single-turnover adenylylation kinetics, […]'-32P tRNA; format: biochemical; settings: read-out: KDapp,NTP, adenylylation step, 15 μM enzyme, 10 mM MgCl2, pH 6.0, room temperature

| SMILES | Kd [1] | Kd [2] |
| --- | --- | --- |
| Nc1nc2c(ncn2[C@@H]2O[C@H](COP(=O)(O)OP(=O)(O)OP(=O)(O)O)[C@@H](O)[C@H]2O)c(=O)[nH]1 [GTP] | 21 ± 4 µM | – |
| Nc1ncnc2c1ncn2[C@@H]1O[C@H](COP(=O)(O)OP(=O)(O)OP(=O)(O)O)[C@@H](O)[C@H]1O [ATP] | – | 360 ± 80 µM |
